The record followed here is ChEMBL document CHEMBL1201862, “PubChem BioAssay data set” (2004).

Test systems include HCT-116; HL-60; HT-29; IGROV-1; MDA-N; MOLT-4; NCI-H226; NCI-H23; NCI-H460; OVCAR-5; OVCAR-8; RXF 393; SF-268; SF-539; SK-MEL-5; SK-OV-3; SR; U-251; UO-31; M19-MEL.
Holding throughout (experiment): DTP human tumour cell line panel, 48 h

SMILES strings stand for the structures.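 A five-concentration, 48-hour dose response in 96-well plates underlies each endpoint, interpolated linearly between surrounding concentrations. Abbreviation: GI50, concentration required for 50% inhibition of growth.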 The source made the active and inactive calls. Cut-off read from the data, not from the text of the source: active = GI50 up to about 1.1 µM and inactive = higher.

On to `CN1CCN(CCCNN)CC1`, for which the GI50 (in general, the concentration at which growth is held to half of that of the control) is > 100 µM (inactive) in the assay on HCT-116; 7.33 µM (inactive) in the assay on HL-60; > 100 µM (inactive) in the assay with HT-29; > 100 µM (inactive) with IGROV-1; > 100 µM (inactive) in the assay with MDA-N; 0.305 µM (active) in the assay on MOLT-4. The GI50 with NCI-H226, in the assay on NCI-H23, with NCI-H460, in the assay with OVCAR-5, in the assay with OVCAR-8 and in the assay on RXF 393 was > 100 µM (inactive) in each case. For the same compound, the GI50 in the assay with SF-268 was > 100 µM (inactive); in the assay with SF-539 it was > 100 µM (inactive); with SK-MEL-5, > 100 µM (inactive); in the assay on SK-OV-3, > 100 µM (inactive); in the assay with SR it was 0.0327 µM (active); with U-251, > 100 µM (inactive). Further, the GI50 with UO-31 is > 100 µM (inactive).
`COc1cc(S(=O)(=O)Nc2nc(-c3ccc(N)cc3)cs2)ccc1Cl`: the GI50 is 65.2 µM (inactive) in the assay with HCT-116; 45.7 µM (inactive) in the assay with HL-60; 54 µM (inactive) in the assay with HT-29; 44.7 µM (inactive) with IGROV-1; 55.8 µM (inactive) with MDA-N; 53.7 µM (inactive) with MOLT-4. Also, the GI50 with NCI-H226 was 41.7 µM (inactive); in the assay on NCI-H23, 45.8 µM (inactive); with NCI-H460 it was 84.9 µM (inactive); in the assay with OVCAR-5, > 100 µM (inactive); with OVCAR-8, 64.7 µM (inactive); in the assay with RXF 393, 38.1 µM (inactive). Besides, the GI50 in the assay with SF-268 is 75.7 µM (inactive); in the assay with SF-539, > 100 µM (inactive); in the assay on SK-MEL-5, 38.6 µM (inactive); with SK-OV-3, 97.9 µM (inactive); with SR it was 61 µM (inactive); with U-251, 63 µM (inactive). The GI50 with UO-31 is 85.7 µM (inactive).
For the compound `C=C1C(=O)OC2/C=C(\COC(C)=O)CCC(OC(C)=O)C3=CC(OC3=O)C12` (centres undefined), the GI50 was 2.48 µM (inactive) in the assay on HCT-116; 2.23 µM (inactive) with HL-60; 3.9 µM (inactive) in the assay with HT-29; 23.8 µM (inactive) in the assay with IGROV-1; > 10 µM (inactive) in the assay with MDA-N; 1.58 µM (inactive) with MOLT-4. The GI50 in the assay on NCI-H226 is 23.9 µM (inactive); in the assay on NCI-H23 it was 8.95 µM (inactive); in the assay with NCI-H460, 19.5 µM (inactive); with OVCAR-5, 17.7 µM (inactive); with OVCAR-8, 3.31 µM (inactive); in the assay with RXF 393, 1.59 µM (inactive). The GI50 is 22.3 µM (inactive) in the assay on SF-268; 6.64 µM (inactive) with SF-539; 11.6 µM (inactive) in the assay with SK-MEL-5; 14.6 µM (inactive) with SK-OV-3; 2.3 µM (inactive) in the assay on SR; 12.2 µM (inactive) with U-251. The GI50 in the assay with UO-31 was 17.3 µM (inactive).
For the compound `Clc1ccc2oc(CCc3ccccc3)nc2c1`, the GI50 was 36.2 µM (inactive) in the assay on HCT-116; 34.7 µM (inactive) in the assay on HL-60; 33.4 µM (inactive) in the assay with HT-29; 51.3 µM (inactive) in the assay on IGROV-1; 50.1 µM (inactive) in the assay on MDA-N; 35.4 µM (inactive) with MOLT-4. The GI50 is 32.6 µM (inactive) in the assay on NCI-H226; 45.8 µM (inactive) with NCI-H23; 59.2 µM (inactive) in the assay on NCI-H460; 83.2 µM (inactive) with OVCAR-5; 78.9 µM (inactive) in the assay on OVCAR-8; 24.9 µM (inactive) in the assay on RXF 393. In addition, the GI50 in the assay on SF-268 was 87.9 µM (inactive); in the assay with SF-539, > 100 µM (inactive); with SK-MEL-5 it was 20.3 µM (inactive); in the assay with SK-OV-3 it was 47.2 µM (inactive); in the assay with SR it was 57.3 µM (inactive); in the assay on U-251 it was 37.2 µM (inactive). For the same compound, the GI50 in the assay on UO-31 was 62.7 µM (inactive).
As to `COC(=O)/C=C/CC(=O)NS(C)(=O)=O`, the GI50 in the assay with HCT-116, with HL-60, in the assay on HT-29, with IGROV-1, in the assay with MDA-N and with MOLT-4 was > 10 µM (inactive) throughout. For the same compound, the GI50 in the assay on NCI-H226, in the assay with NCI-H23, in the assay with NCI-H460, with OVCAR-5, in the assay on OVCAR-8 and with RXF 393 was > 10 µM (inactive) in each case. Also, the GI50 in the assay on SF-268, in the assay on SF-539, in the assay on SK-MEL-5, with SK-OV-3, with SR and in the assay on U-251 was > 10 µM (inactive) each time. In the assay on UO-31, the GI50 is > 10 µM (inactive).
As for `Clc1ccc(-c2noc(CN3CCCCC3)n2)cc1`, the GI50 with HCT-116 was 90.2 µM (inactive); in the assay on HL-60, 85.9 µM (inactive); in the assay on HT-29, 46.2 µM (inactive); with IGROV-1 it was > 100 µM (inactive); in the assay with MDA-N, > 100 µM (inactive); with MOLT-4, 49.7 µM (inactive). Moreover, the GI50 in the assay on NCI-H226 was > 100 µM (inactive); with NCI-H23, > 100 µM (inactive); in the assay on NCI-H460, > 100 µM (inactive); with OVCAR-5, > 100 µM (inactive); in the assay with OVCAR-8, > 100 µM (inactive); in the assay on RXF 393, 44 µM (inactive). The GI50 is > 100 µM (inactive) in the assay with SF-268; > 100 µM (inactive) in the assay with SF-539; 34 µM (inactive) with SK-MEL-5; > 100 µM (inactive) in the assay on SK-OV-3; 63.1 µM (inactive) with SR; > 100 µM (inactive) with U-251. Besides, the GI50 in the assay with UO-31 is > 100 µM (inactive).
Regarding `O=c1c2ccccc2[nH]c(=S)n1-c1ccc(/N=N/c2cccc3c(O)cccc23)cc1`, the GI50 with HCT-116 was > 100 µM (inactive); in the assay with HL-60 it was 54.8 µM (inactive); in the assay with HT-29 it was > 100 µM (inactive); in the assay with IGROV-1, 55.3 µM (inactive); in the assay on MDA-N it was 34.4 µM (inactive); with MOLT-4, 45.3 µM (inactive). For the same compound, the GI50 in the assay with NCI-H226 was > 100 µM (inactive); in the assay with NCI-H23 it was > 100 µM (inactive); in the assay on NCI-H460 it was > 100 µM (inactive); in the assay on OVCAR-5 it was 76.7 µM (inactive); with OVCAR-8, > 100 µM (inactive); in the assay on RXF 393 it was > 100 µM (inactive). In addition, the GI50 in the assay with SF-268 was > 100 µM (inactive); with SF-539, > 100 µM (inactive); in the assay on SK-MEL-5, 24.9 µM (inactive); in the assay with SK-OV-3, > 100 µM (inactive); in the assay with SR it was 74.5 µM (inactive); with U-251, 87.5 µM (inactive). Besides, in the assay on UO-31, the GI50 is > 100 µM (inactive).
Take `CCOC(=O)C(NC(=O)CC)(Nc1ccc(S(=O)(=O)Nc2ccc(OC)nn2)cc1)C(F)(F)F` (centres undefined): the GI50 in the assay on HCT-116, in the assay with HL-60, with HT-29, with IGROV-1, with MDA-N and in the assay on MOLT-4 was > 100 µM (inactive) each time. Besides, the GI50 in the assay on NCI-H226, in the assay with NCI-H23, in the assay on NCI-H460, in the assay with OVCAR-5, in the assay on OVCAR-8 and in the assay with RXF 393 was > 100 µM (inactive) throughout. For the same compound, the GI50 with SF-268, in the assay with SF-539, in the assay on SK-MEL-5, with SK-OV-3, with SR and in the assay with U-251 was > 100 µM (inactive) throughout. Besides, in the assay with UO-31, the GI50 was > 100 µM (inactive).
`c1ccc(-c2csc3ncn4cnnc4c23)cc1`: the GI50 in the assay on HCT-116 was 91.4 µM (inactive); in the assay on HL-60 it was 86.1 µM (inactive); with HT-29, > 100 µM (inactive); with IGROV-1 it was 77.8 µM (inactive); in the assay on M19-MEL, > 100 µM (inactive); with MOLT-4, 44.1 µM (inactive). In addition, the GI50 was 54.1 µM (inactive) in the assay on NCI-H226; 90.2 µM (inactive) in the assay on NCI-H23; > 100 µM (inactive) in the assay on OVCAR-8; > 100 µM (inactive) in the assay on SF-539; 58.1 µM (inactive) in the assay on SK-MEL-5; > 100 µM (inactive) in the assay on SK-OV-3. The values for the GI50 in the assay with U-251 and with UO-31 were > 100 µM (inactive) and 48.3 µM (inactive), respectively.
`Cc1ccccc1NC(=O)CC(=O)NNC(Sc1ccccc1)c1cc(/N=N/c2ccc(Br)cc2)ccc1O` (centres undefined): the GI50 in the assay on HCT-116 was 0.308 µM (active); in the assay on HL-60, 0.277 µM (active); in the assay on HT-29, 9.48 µM (inactive); in the assay with IGROV-1, 8.02 µM (inactive); in the assay with MDA-N, 3.14 µM (inactive); in the assay with MOLT-4, 0.332 µM (active). Further, the GI50 is 2.04 µM (inactive) with NCI-H226; 3.08 µM (inactive) with NCI-H23; 0.658 µM (active) with NCI-H460; 7.59 µM (inactive) with OVCAR-5; 0.552 µM (active) with OVCAR-8; 2.13 µM (inactive) in the assay on RXF 393. The GI50 in the assay on SF-268 was 0.733 µM (active); with SF-539, 1.37 µM (inactive); in the assay with SK-MEL-5 it was 1.24 µM (inactive); in the assay with SK-OV-3 it was 5.26 µM (inactive); in the assay with SR, 0.37 µM (active); with U-251 it was 2.64 µM (inactive). Further, the GI50 in the assay with UO-31 was 2.68 µM (inactive).
As for `Cc1ccc(S(=O)(=O)N2CCN(CCN(C)CCN3CCN(S(=O)(=O)c4ccc(C)cc4)CC3)CC2)cc1`, the GI50 was 17 µM (inactive) with HCT-116; 16.1 µM (inactive) in the assay on HL-60; 14.5 µM (inactive) in the assay with HT-29; 16.3 µM (inactive) in the assay with IGROV-1; 18.9 µM (inactive) with MDA-N; 14.1 µM (inactive) in the assay with MOLT-4. For the same compound, the GI50 with NCI-H226 was 25.7 µM (inactive); in the assay on NCI-H23, 22.6 µM (inactive); in the assay on NCI-H460, 17.5 µM (inactive); in the assay on OVCAR-5 it was 28.5 µM (inactive); in the assay on OVCAR-8, 17.4 µM (inactive); in the assay on RXF 393, 14.3 µM (inactive). Further, the GI50 in the assay on SF-268 was 17.2 µM (inactive); with SF-539, 16.4 µM (inactive); with SK-MEL-5, 16.3 µM (inactive); in the assay on SK-OV-3 it was 18.4 µM (inactive); in the assay with SR, 18.5 µM (inactive); in the assay with U-251, 17.3 µM (inactive). The GI50 with UO-31 is 13.9 µM (inactive).
